pIC50: −log10 of the molar value. “Also recorded” adds a separate entry of the source.
Legend:
[1] = target: T1, D473H SMO mutant (Homo sapiens, UniProt Q99835, D473H); experiment: Gli-luciferase reporter assay, C3H10T1/2 cells transfected with D473H SMO; type: cell-based, mouse
T1 construct: expressed in transfected cells; host or cells: C3H10T1/2 cells (ATCC CCL-226), mouse
Procedure: Wild type human SMO was subcloned into pcDNA3.1 from an expression construct in pCMV6 (Origene #SC122724). D473H SMO was then generated by site-directed mutagenesis using the Stratagene QuikChange kit (Agilent #200519) and sequence verified.
Gli-Luciferase reporter assays were performed as described. (Yauch et al. (2009) Science 326: 572-574) Briefly, C3H10 T1/2 cells (ATCC, #CCL-226) were plated in six-well plates at 1×10 to 5th cells per well in BME (Gibco #21010) with 10% FBS (Hyclone #SH30070.03), 2 mM Glutamine (Gibco #25030) and 50 units penicillin/50 ug streptomycin (Gibco #15140). The next morning, cells were transfected with 400 ng SMO expression construct, 400 ng 8× Gli-Luc, and 200 ng pRL-TK per well with GeneJuice transfection reagent (Novagen #70967). Cells in each well were lifted six hours later and replated into four wells of a 12 well plate and allowed to attach overnight. Medium was then changed to low (0.5%) serum and compounds were added in quadruplicate in a range of concentrations. After a 48 hour incubation, firefly and renilla luciferase were assayed using the Promega Dual-Glo Luciferase Assay System (Promega #E2940) and ratios were used to determine percent of control using Prism graphing software.

[2] = system: primary serous ovarian cancer xenograft; experiment: Primary serous ovarian cancer xenograft, post carboplatin/taxol; type: in vivo, NOD/SCID mice
Procedure: The effects of IPI-926 were examined following carboplatin/taxol combination chemotherapy in a series of primary ovarian cancer xenograft models.
1) IPI-926 was given daily, oral at 40 mg/kg
2) The taxol/carboplatinum was given: • a. Intraperitoneal Carboplatinum 50 mg/kg every 7 days • b. Intraperitoneal Paclitaxel 15 mg/kg every 7 days
Days of carboplatin/taxol and IPI-926 administration are indicated by the arrows. […] The inhibitory effects of IPI-926 persisted after discontinuing administration of IPI-926. Thus, IPI-926 can be useful as maintenance therapy in ovarian cancer.
Excess ovarian tumor tissue from patients was collected. Histologically confirmed papillary serous ovarian tumors was disaggregated into purified tumor cells devoid of hematologic components. These cells were suspended in a 1:1 PBS:Matrigel®. A suspension of a specified number of cells was injected subcutaneously (SC) into 6 week old NOD/SCID mice (NOD/LtSz-Prkdcscid/J; 6-8 weeks; Jackson Labs). The mice were housed and maintained in accordance with the institutional guidelines and tumor formation in the injected animals is monitored regularly. Subcutaneous tumors were measured weekly with calipers, and the volume (in mm^3) was determined using the formula: [length (mm)×width (mm)×width (mm)]/2. Animals were euthanized when they become moribund or had evident excessive tumor burden. For continued propagation in mice, the generated tumors were excised and processed as described for the primary tumor samples, depleted of mouse H2 Kd+ cells (MACS beads) and re-injected subcutaneously into new recipient NOD/SCID mice. All tumor cells utilized for these experiments underwent at least 3 passages to ensure the presence of a tumor initiating population. Histology of each generation was evaluated to confirm the maintenance of papillary serous histology.
Following serial transplantation, a minimum of 40 tumor-bearing mice (300-600 mm^3) were treated with vehicle or paclitaxel (15 mg/kg) and carboplatinum (50 mg/kg) (T/C) IP q 7 days. […] Tumor volume and mouse weights were regularly assessed. […]

[3] = system: LuCaP35V (Castration Resistant) primary prostate cancer; experiment: LuCaP35V castration resistant primary prostate cancer model; type: in vivo
Source text: The effects of IPI-926 were examined following docetaxel chemotherapy in a model of castration resistant prostate cancer. Prostate cancer is known to be a highly desmoplastic cancer, and one that preferentially metastasizes to bone. Sonic hedgehog ligand is expressed in clinical specimens and primary xenograft models. […] FIG. 7 summarizes the effects of IPI-926 in LuCaP35V (Castration Resistant) primary prostate cancer model. Days of docetaxel and IPI-926 administration are indicated by the arrowheads at the indicated days post-implant. The following samples were tested: Vehicle control (administered orally once a day), 40 mg/kg of IPI-926 (administered orally once a day), docetaxel (administered intravenously Q14D for 28 days), or docetaxel (administered intravenously Q14D for 28 days) followed by 40 mg/kg of IPI-926, as shown in FIG. 7. […] Thus, IPI-926 can be useful as maintenance therapy in prostate cancer.

[4] = Tolerability in mice; type: in vivo; settings: incl. daily 20 mg/kg for greater than 60 days and once-weekly 70 mg/kg
Source text: Studies that are currently underway in pediatric patients and those being planned must consider the permanent changes on cartilage and bone formation observed in young mice as a result of treatment with the HhAntag Smoothened inhibitor (Kimura et al., (2008) Cancer Cell 13: 249-260). The extent to which this on-target toxicity is species specific remains unknown at this time.

[5] = target: Pgp (Homo sapiens, UniProt P08183); experiment: Pgp substrate status; type: in vitro ADME
Chain of Pgp (P08183 whole entry): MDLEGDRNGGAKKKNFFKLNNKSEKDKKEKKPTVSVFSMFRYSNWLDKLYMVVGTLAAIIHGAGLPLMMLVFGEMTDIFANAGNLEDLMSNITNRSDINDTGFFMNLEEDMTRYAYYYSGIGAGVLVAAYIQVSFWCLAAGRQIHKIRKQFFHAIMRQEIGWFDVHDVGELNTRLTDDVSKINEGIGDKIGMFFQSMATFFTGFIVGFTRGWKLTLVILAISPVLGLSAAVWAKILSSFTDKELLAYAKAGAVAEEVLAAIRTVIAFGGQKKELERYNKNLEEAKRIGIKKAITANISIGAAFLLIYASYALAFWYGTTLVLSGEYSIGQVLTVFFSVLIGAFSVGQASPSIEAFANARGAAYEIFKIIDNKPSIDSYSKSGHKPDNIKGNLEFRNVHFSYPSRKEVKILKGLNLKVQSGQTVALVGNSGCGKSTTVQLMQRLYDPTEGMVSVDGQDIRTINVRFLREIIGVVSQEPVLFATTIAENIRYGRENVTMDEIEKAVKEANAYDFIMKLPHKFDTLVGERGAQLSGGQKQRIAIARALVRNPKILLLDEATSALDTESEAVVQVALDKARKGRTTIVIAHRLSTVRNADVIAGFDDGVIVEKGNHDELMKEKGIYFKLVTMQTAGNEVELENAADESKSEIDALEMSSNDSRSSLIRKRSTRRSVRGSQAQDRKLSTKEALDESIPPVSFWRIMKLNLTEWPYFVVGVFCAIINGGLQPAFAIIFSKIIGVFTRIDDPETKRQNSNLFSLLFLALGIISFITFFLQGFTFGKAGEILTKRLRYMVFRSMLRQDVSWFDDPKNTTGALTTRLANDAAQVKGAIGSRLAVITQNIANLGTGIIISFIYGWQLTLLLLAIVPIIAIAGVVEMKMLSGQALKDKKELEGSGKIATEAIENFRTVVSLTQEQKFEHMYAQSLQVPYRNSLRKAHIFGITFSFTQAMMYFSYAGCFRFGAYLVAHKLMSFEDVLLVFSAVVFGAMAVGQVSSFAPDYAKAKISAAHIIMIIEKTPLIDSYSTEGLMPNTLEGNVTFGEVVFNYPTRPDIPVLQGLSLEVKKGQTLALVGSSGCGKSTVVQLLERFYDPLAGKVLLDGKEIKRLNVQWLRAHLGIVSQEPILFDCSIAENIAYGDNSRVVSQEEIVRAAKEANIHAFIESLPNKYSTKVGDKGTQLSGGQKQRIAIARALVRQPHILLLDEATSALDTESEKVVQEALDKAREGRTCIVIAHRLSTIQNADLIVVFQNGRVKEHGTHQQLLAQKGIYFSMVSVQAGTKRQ

[6] = system: KPC mice pancreatic tumors; settings: combination of IPI-926 and Gemcitabine; cited from earlier work
[7] = system: human cell lines derived from patients with cancer; settings: pancreatic cancer, medulloblastoma, lung cancer, multiple myeloma, leukemia, lymphoma lines; cited from earlier work

T1 sequence (Q99835 28-787 D473H): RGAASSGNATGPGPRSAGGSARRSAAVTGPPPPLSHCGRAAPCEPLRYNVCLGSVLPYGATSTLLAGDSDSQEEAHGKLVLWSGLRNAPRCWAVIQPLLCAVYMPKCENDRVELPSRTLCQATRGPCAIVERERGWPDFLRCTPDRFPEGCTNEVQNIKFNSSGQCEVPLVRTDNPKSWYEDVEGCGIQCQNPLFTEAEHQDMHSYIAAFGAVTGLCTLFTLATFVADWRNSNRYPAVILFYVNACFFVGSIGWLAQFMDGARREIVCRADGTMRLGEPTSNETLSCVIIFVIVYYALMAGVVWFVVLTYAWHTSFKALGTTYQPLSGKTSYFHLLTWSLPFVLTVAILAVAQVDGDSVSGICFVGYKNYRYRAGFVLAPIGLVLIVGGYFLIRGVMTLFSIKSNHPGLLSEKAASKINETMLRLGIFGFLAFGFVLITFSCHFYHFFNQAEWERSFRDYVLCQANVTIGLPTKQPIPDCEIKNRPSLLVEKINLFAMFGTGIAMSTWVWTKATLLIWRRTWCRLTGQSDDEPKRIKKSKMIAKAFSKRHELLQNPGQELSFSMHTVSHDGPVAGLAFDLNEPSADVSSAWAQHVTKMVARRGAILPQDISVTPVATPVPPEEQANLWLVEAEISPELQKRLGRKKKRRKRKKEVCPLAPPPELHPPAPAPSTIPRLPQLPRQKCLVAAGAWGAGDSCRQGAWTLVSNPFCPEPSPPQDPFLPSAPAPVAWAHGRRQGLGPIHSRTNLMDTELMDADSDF

SMILES: CC1=C2C[C@H]3[C@@H](CC[C@@H]4C[C@H](NS(C)(=O)=O)CC[C@@]43C)[C@@H]2CC[C@@]2(C1)O[C@@H]1C[C@H](C)CN[C@H]1[C@H]2C [IPI-926]
- pIC50 [1]: 6.61
- percent tumor volume, IPI-926 alone ([2]; after 20 days of treatment, vs control treated mice): smaller percent tumor volume (p<0.007)
- tumor volume after cessation of carboplatin/taxol chemotherapy ([2]; carboplatin/taxol followed by IPI-926 40 mg/kg oral, vs followed by vehicle, 40 mg/kg): prolonged duration of the tumor inhibition; also recorded: smaller percent tumor volume (p<0.02)
- mGLI-1 mRNA in tumor ([2]; primary xenograft model of ovarian cancer): modulate mGLI-1
- tumor volume, IPI-926 alone ([3]; 40 mg/kg orally once a day): marked increase in tumor volume
- tumor volume after cessation of docetaxel chemotherapy ([3]; docetaxel IV Q14D for 28 days followed by 40 mg/kg IPI-926): prolonged duration of the tumor inhibition
- tolerability [4]: well tolerated
- Pgp substrate [5]: Pgp substrate
- intratumoral vascular density and gemcitabine concentration [6]: transient increase in intratumoral vascular density and intratumoral concentration of gemcitabine
- in vitro growth of human cancer cell lines [7]: inhibit in vitro growth

— patent US20120010229A1, “THERAPEUTIC REGIMENS FOR HEDGEHOG-ASSOCIATED CANCERS” (priority 2010, published 2012)
